The numbers were not newly measured in patent US20060115424A1, “Combination therapy of oxaliplatin and radioactively doped particles treating cancer” (priority 2003, published 2006), which cites them from elsewhere.

This data set concerns cancer. The following applies: Gray et al (2001) Annals of Oncology 12: 1711-1720.

Regarding `O=c1[nH]c(=O)n([C@H]2C[C@H](O)[C@@H](CO)O2)cc1F` [floxuridine], the response rate is recorded as 17.6% and the “time to disease progression” value was 9.7 months.
